# Experimental data reported in patent US20240174690A1, “ANNULATED 2-AMINO-3-CYANO THIOPHENES AND DERIVATIVES FOR THE TREATMENT OF CANCER” (BOEHRINGER INGELHEIM INTERNATIONAL GMBH, priority 2021, published 2024).
# Where two headings read alike, the source gives them in different places.
# Legend:
# [1] = tested on: KRAS G12V-dependent Ba/F3 cells; test: Ba/F3 proliferation assay, KRAS G12V; assay type: cell-based; settings: Mus musculus, BaF3, 72 h, AlamarBlue;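 note: proliferation IC50 in KRAS G12V-dependent Ba/F3 cells read by AlamarBlue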
# In short: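 IL-3-independent Ba/F3 lines carrying retrovirally introduced KRAS G12C, G12D or G12V; puromycin withdrawn ~10 days before assay. Duplicate treatments, AlamarBlue fluorescence readout, curve-fit analysis.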
# [2] = tested on: AsPC-1 cells; test: AsPC-1 CTG proliferation assay (120 h) (pancreatic cancer, G12D); assay type: cell-based; settings: Homo sapiens, ASPC1
# In short: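 CellTiter-Glo luminescence, normalised to DMSO wells, measured viability after 120 h compound exposure. Cells were AsPC-1 pancreatic cancer (G12D) plated at 2000 per well in RPMI/10% FCS the day before dosing. IC50 derived by four-parameter regression.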
# [3] = tested on: SAS cells; test: SAS CTG proliferation assay (120 h) (HNSCC, wt amplified); assay type: cell-based
# In short: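 Viability measured by CellTiter-Glo luminescence, normalized to DMSO wells, after 120 h compound treatment of SAS cells. Cells grown in DMEM:F12 plus 10% FCS at 300 cells per well, dosed the day after seeding. Four-parameter fit gives IC50.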
# [4] = tested on: LOVO cells; test: LOVO CTG proliferation assay (120 h) (CRC, G13D); assay type: cell-based; settings: Homo sapiens, CTG 120 h
# In short: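 IC50 comes from a four-parameter fit of CellTiter-Glo viability, expressed as RLU relative to DMSO wells. Compound exposure lasted 120 h in LOVO cells seeded the day before at 1000 cells/well in DMEM with 10% fetal calf serum.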
# [5] = Solubility measurement (DMSO solution method), McIlvaine buffer pH 4.5 or 6.8; assay type: physicochemical; settings: aqueous buffer, kinetic from dmso stock, DMSO stock diluted to 250 μM, 24 h shaking at ambient temperature
# In short: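 Filtrate concentration by LC-UV, calibrated to a known-concentration reference dissolved completely in acetonitrile/water (1:1). Samples came from 250 µM final dilutions of DMSO stock in pH 4.5 or 6.8 McIlvaine buffer, shaken 24 h at ambient temperature, then filtered.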
# [6] = McIlvaine buffer pH 4.5, read-out: solubility pH 4.5
# [7] = McIlvaine buffer pH 6.8, read-out: solubility pH 6.8
Compound,IC50 [1],IC50 [2],IC50 [4],"solubility at 24 h [5, 6]","solubility at 24 h [5, 7]",IC50 [3]
CCN1CCN(c2cc(O[C@@H](C)[C@@H]3C[C@@H](F)CN3C)nc(-c3noc4c3CCC[C@@]43CCCc4sc(N)c(C#N)c43)n2)CC12CC2 [II-185],0.334 µM,0.19 µM,0.714 µM,> 0.147 mg/mL,0.008 mg/mL,2.42 µM
CC(=O)N1CCN(c2cc(O[C@@H](C)[C@@H]3CCCN3C)nc(-c3noc4c3CCC[C@@]43CCCc4sc(N)c(C#N)c43)n2)CC12CC2 [II-178],0.032 µM,0.814 µM,0.624 µM,0.127 mg/mL,0.11 mg/mL,2.57 µM
C[C@H](Oc1cc(N2CCNC[C@]23CCOC3)nc(-c2onc3c2CCC[C@@]32CCCc3sc(N)c(C#N)c32)n1)[C@@H]1CCCN1C [I-12],0.343 µM,0.235 µM,0.824 µM,> 0.152 mg/mL,0.125 mg/mL,0.218 µM
C[C@H](Oc1cc(N2CCN(C)C3(COC3)C2)nc(-c2noc3c2CCC[C@@]32CCCc3sc(N)c(C#N)c32)n1)[C@@H]1C[C@@H](F)CN1C [II-148],0.162 µM,0.376 µM,0.109 µM,> 0.146 mg/mL,< 0.001 mg/mL,0.421 µM
C[C@H](Oc1cc(N2C[C@@H]3[C@@H](N)[C@@H]3C2)nc(-c2noc3c2CCC[C@@]32CCCc3sc(N)c(C#N)c32)n1)[C@@H]1CCCN1C [II-167],0.879 µM,4.23 µM,6.43 µM,> 0.153 mg/mL,> 0.142 mg/mL,1.39 µM

# Now those with a lower IC50 [1], led by results:
IC50 [1],IC50 [2],IC50 [4],"solubility at 24 h [5, 6]","solubility at 24 h [5, 7]",Compound,IC50 [3]
0.031 µM,2.1 µM,0.091 µM,> 0.13 mg/mL,0.042 mg/mL,C[C@H](Oc1cc(-c2ccn(Cc3ncco3)n2)nc(-c2noc3c2CCC[C@@]32CCCc3sc(N)c(C#N)c32)n1)[C@@H]1CCCN1C [II-128],0.046 µM
0.007 µM,0.508 µM,0.046 µM,0.004 mg/mL,0.005 mg/mL,C[C@H](Oc1cc(-n2cc3ccn(C[C@H]4CCOC4)c(=O)c3n2)nc(-c2noc3c2CCC[C@@]32CCCc3sc(N)c(C#N)c32)n1)[C@@H]1CCCN1C [II-204],0.017 µM
0.006 µM,0.275 µM,0.117 µM,0.023 mg/mL,0.002 mg/mL,C[C@H](Oc1cc(-n2ccc(-c3cn(CC4(C)COC4)nn3)n2)nc(-c2noc3c2CCC[C@@]32CCCc3sc(N)c(C#N)c32)n1)[C@@H]1CCCN1C [II-213],0.013 µM
0.003 µM,0.162 µM,0.009 µM,0.113 mg/mL,0.004 mg/mL,CO[C@H]1CCN(C)[C@@H]1[C@H](C)Oc1cc(-n2ccc(CC(=O)NC(C)C)n2)nc(-c2noc3c2CCC[C@@]32CCCc3sc(N)c(C#N)c32)n1 [II-183],0.006 µM
0.001 µM,0.34 µM,0.015 µM,> 0.163 mg/mL,0.004 mg/mL,COCCNC(=O)c1ccn(-c2cc(O[C@@H](C)[C@@H]3[C@@H](OC)CCN3C)nc(-c3noc4c3CCC[C@@]43CCCc4sc(N)c(C#N)c43)n2)n1 [II-200],0.008 µM
